In brackets after ≈: the same amount, converted by molar mass.
Assays:
[1] = target: recombinant 11β-HSD1 enzyme (Homo sapiens (Human), UniProt P28845); assay: 11β-HSD1 oxidase activity (HTRF Cortisol Kit); format: biochemical
Method: Determination of 11β-HSD1 Oxidase Activity
The Cortisol Kit (Cisbio) product was used for that purpose.
For the analysis, the compounds are reconstituted in DMSO in a stock of 10 mM concentration, from which serial dilutions were prepared for the efficiency curve.
The recombinant 11β-HSD1 enzyme dilutions were prepared in 20 mM Tris Buffer 5 mM EDTA pH 6.0 (Tris buffer).
Initially, the enzyme concentration to be used was determined. For this purpose, a plate for HRTF was prepared with Tris buffer with 100 nM cortisol and 200 μM NADP+, including in the wells of the plate for HTRF together with the enzyme in a 4:1 ratio, respectively, and incubated for 2 hours at 37° C. After this time, the reagents of the Cortisol kit, Cortisol d2 and Cortisol cryptate in sample ratio, Cortisol d2 and cortisol cryptate 2:1:1 were added, incubating this new reaction for 1 hour at room temperature. Subsequently, the fluorescence was determined at 665 and 620 nm.
An HRTF plate was again prepared, where the reaction buffer, the recombinant 11β-HSD1 enzyme and the compound were added in each well in a 3:1:1 ratio, respectively. The plate was incubated at 37° C. for 2 hours. After the incubation time, the reagents of the cortisol kit, cortisol d2 and cortisol cryptate, were added as indicated above. They were then incubated at room temperature for 1 hour to finally read the fluorescence at 665 and 620 nm.

11β-HSD2 = 11β-HSD2 oxidase activity in human hepatic microsomes (HTRF Cortisol Kit); format: biochemical; details: remaining activity at 100 nM compound
Method: Determination of 11β-HSD2 Oxidase Activity
The concentration of cortisone produced in the reaction, with and without the compounds, was determined using the Cortisol Kit (Cisbio) product in order to evaluate the 11β-HSD2 oxidase activity.
As in the previous assays, the compounds are reconstituted in DMSO to 10 mM stock, in order to subsequently make serial dilutions to determine the efficacy curve.
To perform the assay, the HTRF plate was prepared containing Tris buffer, 100 nM cortisol and 200 μM NAD^+. Enzyme is added to the corresponding wells in a 4:1 ratio, respectively, and incubated for 2 hours at 37° C. For the kit control, two wells are added only with Tris buffer.
After the incubation time, the reagents of the Cortisol kit, Cortisol d2 and Cortisol cryptate, in a sample ratio, Cortisol d2 and cortisol cryptate 2:1:1 are added. For the negative control, cortisol d2 was replaced in some wells by the kit's reconstitution buffer. The plate was incubated for 1 hour at room temperature to later read at 665 and 620 nm.
For this purpose, the reaction buffer was prepared and subsequently, in a plate for HTRF, the reaction buffer, the microsomes in a concentration of 5 mg/mL and the compound in a ratio of 3:1:1, respectively, were added to each well. In the case of reaction controls, the reaction buffer without cortisol and without compound is included for the negative control. For the positive control, no compound is added, and for the kit controls, only the reaction buffer is added to the negative and positive control wells.
After incubating the plate for 2 hours, the reagents of the cortisol kit, cortisol d2 and cortisol cryptate, are added to the corresponding wells as indicated above. They are then incubated at room temperature for 1 hour to finally read the 665 and 620 nm fluorescence.

[2] = Aqueous solubility in the gastrointestinal pH range; format: physicochemical
Method: A stock solution of 100 mM was prepared in DMSO that was added in volumes established on the buffers until the appearance of turbidity was observed. These solutions were prepared in triplicate in final DMSO concentrations of 0.5 to 5.0% V/V of each buffer, then were incubated at 37° C. with vigorous stirring for 48 hours, then another 48 hours but without stirring. The samples were centrifuged and the supernatant was diluted with mobile phase chromatography to be later analyzed by μHPLC-Ms/Ms. The solubility value at each pH was obtained from the intercept of the straight line solubility versus % DMSO. Table 6 presents the aqueous solubility values of BD-40 in the pH range 1.2-6.8.

plasma proteins = assay: Plasma protein binding (Transil XL PPB Binding Kit); format: in vitro ADME
Excerpt: To carry out this study, the commercial Transil XL PPB Binding Kit, v2, Sovicell was used, following the manufacturer's recommendations.

Chain of recombinant 11β-HSD1 enzyme (P28845 whole entry): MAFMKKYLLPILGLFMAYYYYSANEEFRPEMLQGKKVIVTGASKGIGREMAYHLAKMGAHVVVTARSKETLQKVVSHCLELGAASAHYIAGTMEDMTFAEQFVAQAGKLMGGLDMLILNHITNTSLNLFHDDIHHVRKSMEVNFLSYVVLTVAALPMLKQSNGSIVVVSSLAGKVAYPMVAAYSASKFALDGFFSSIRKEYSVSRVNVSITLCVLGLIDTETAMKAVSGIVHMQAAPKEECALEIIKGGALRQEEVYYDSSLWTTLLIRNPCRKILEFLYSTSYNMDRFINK

SMILES: Cc1cccc(CCc2nc(C34CC5CC(CC(C5)C3)C4)no2)c1 [BD-40, 1-(3-methylphenyl)-2-(3-adamantyl-1,2,4-oxadiazol-5-yl)ethane]
- 11b-HSD1 oxidase (activ rem %) 100 nM ([1]; remaining activity at 100 nM compound): 92.1%
- 11b-HSD1 oxidase (activ rem %) 100 uM ([1]; remaining activity at 100 uM compound): 89.9%
- 11b-HSD2 oxidase (activ rem %) Microcosms 100 nM (11β-HSD2): 97.9%
- Solubility ([2]; pH 1.7, 37° C.): 96.16 µg/mL (≈ 298 µM)
- Solubility ([2]; pH 4.5, 37° C.): 64.12 µg/mL (≈ 199 µM)
- Solubility ([2]; pH 6.8, 37° C.): 59.23 µg/mL (≈ 184 µM)
- plasma protein binding (plasma proteins): 98.3±1.9%

Reference: patent US12304894B2, “Derivatives of adamantyl oxadiazoles and pharmaceutically acceptable solvates, hydrates and salts thereof, pharmaceutical composition comprising same, synthesis method, suitable for use as effective and selective inhibitors of the reductase activity of the enzyme 11-beta dehydrogenase type 1 …” (PONTIFICIA UNIVERSIDAD CATOLICA DE CHILE, priority 2019, dated 2025)
